Experimental data as given in patent US5264593A, “Cholesterol lowering compounds” (Merck & Co., Inc., priority 1993, dated 1993).

Biological target: T1, squalene synthetase (human HepG2 cell enzyme) (Homo sapiens, UniProt P37268)
T1 construct: SOURCE: HEPG2 CELL LINE (Liver, hepatoblastoma, Human) ATCC No. HB 8065; endogenous in cells; host or cells: HepG2 (ATCC HB 8065), sonicated cell extract
T1 sequence (P37268 1-417): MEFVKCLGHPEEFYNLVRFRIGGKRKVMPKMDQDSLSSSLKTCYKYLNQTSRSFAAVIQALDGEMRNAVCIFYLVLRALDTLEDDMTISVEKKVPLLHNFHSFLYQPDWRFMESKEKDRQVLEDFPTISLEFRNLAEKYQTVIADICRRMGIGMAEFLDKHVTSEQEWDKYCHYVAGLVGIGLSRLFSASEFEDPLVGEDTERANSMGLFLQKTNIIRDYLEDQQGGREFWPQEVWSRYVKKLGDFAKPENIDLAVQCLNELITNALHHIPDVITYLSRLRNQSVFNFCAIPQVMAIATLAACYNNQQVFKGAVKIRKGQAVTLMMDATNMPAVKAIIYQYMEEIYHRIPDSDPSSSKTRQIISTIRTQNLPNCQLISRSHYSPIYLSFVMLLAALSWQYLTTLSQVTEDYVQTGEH
Assay: Squalene Synthase Assay (human HepG2 cell enzyme, 3H-farnesyl pyrophosphate substrate)
Format: biochemical
Conditions: 3 μM 3H-farnesyl pyrophosphate, pH 7.5, 30° C., 20 minutes
Description: The intrinsic squalene synthetase inhibitory activity of the compounds of this invention was measured by the standard in vitro protocol described below:
PREPARATION OF HUMAN HepG2 cell ENZYME
1. SOURCE: HEPG2 CELL LINE (Liver, hepatoblastoma, Human) ATCC No. HB 8065
2. CELL GROWTH AND MAINTENANCE
Culture Medium: Minimum essential medium (MEM) with non-essential amino acids, sodium pyruvate, and 10% fetal bovine serum. The medium was changed twice weekly. […] The growth medium is prepared as listed below.
Subculture Procedure: Remove medium, wash with PBS, add fresh trypsin (0.25%)-EDTA (0.02%) with Hank's Balanced Salt solution and let flask stand for a minute and remove the trypsin solution. Incubate flask at 37° C. until cells detached. Add fresh medium, disperse and dispense cells into new flasks. Subcultivation ratio: 1:6.
PREPARATION of Delipidated Serum: Fetal calf serum (100 ml) and CAB-O-Sil (2 grams) stir overnight at 4° C. and centrifuge at 16,000 rpm for 5 hrs. […]
For each reaction, 55 μl of buffer mixture was taken with 5 μl of an inhibitor solution in DMSO and 10 μl of diluted enzyme (1 to 250 as described in the enzyme preparation, the final protein concentration of enzyme in the assay is 2 μg per ml.). […] 150 μl of heptane layer was then removed into a 96 deep well plate and mixed with 150 μl of scintillation fluid and the radioactivity was determined by liquid scintillation counting. […]

IC50 [nM]	Structure (SMILES)
2.95	C=C(CCC12OCC(OC(C)=O)C(C(=O)O)(O1)C(OC(=O)/C=C/C(C)CC(C)CC)C2O)C(OC(C)=O)C(C)Cc1ccccc1 (stereo not drawn) [Example 1, 4-Acetate of 3,4-decarboxy-4-epi-Zaragozic Acid A]
58.2	C=C(CCC12OCC(OC(=O)C(C)(C)C)C(C(=O)O)(O1)C(OC(=O)/C=C/C(C)CC(C)CC)C2O)C(OC(C)=O)C(C)Cc1ccccc1 (stereo not drawn) [Example 2, 4-Trimethylacetate of 3,4-decarboxy-4-epi-Zaragozic Acid A]
